Drawing on ChEMBL document CHEMBL3507680, “University of Dundee, Gates Library screen for HepG2 cell viability”, this text covers cytotoxicity for 64 compounds.

The nature of the data set: Human HepG2 cell viability assay in 384 well format. In kind it is toxicity, cell-based. Particulars: HepG2 cells, read-out: Inhibition. Set-up: dose 125 nL, time 70.5 hour; cytotoxicity at 70.5 h: concentration not given beside the values.

Turning to `c1cc(-c2c[nH]c([C@@H]3COCCN3C3CCOCC3)n2)ccn1`, the cytotoxicity at 70.5 h is -0.86%.
For `CC1=C[C@@H](CC#N)[C@H](C(C)C)C[C@H]1CC(=O)N1CCN(C)CC1`, the cytotoxicity at 70.5 h is 13.1%.
On to `COCCOc1ccnc(-c2noc([C@@H]3CCCN3CC(C)(C)C)n2)c1`, for which the cytotoxicity at 70.5 h came to 2.83%.
Regarding `c1ccc2c(Cc3nnc([C@H]4CCN(C5CCCCC5)C4)o3)c[nH]c2c1`, the cytotoxicity at 70.5 h is -0.596%.
Consider `O=S(=O)(NC[C@H]1C[C@@H]2CCN1C[C@@H]2CN1CCCC1)c1ccc(Cl)cc1`, for which the cytotoxicity at 70.5 h came out at 17%.
`Cn1cncc1-c1nnc([C@H]2CCN(CC(C)(C)C)C2)o1`: the cytotoxicity at 70.5 h was 14%.
Under `CN1CC[C@H](c2nnc(-c3cncn3C)o2)C1` stands -0.523%.
With `c1cncc(-c2nnc([C@H]3CCN(CC4CCCCC4)C3)o2)c1` the figure was -6.55%; with `Fc1ccc(OCc2nnc([C@H]3CCN(Cc4cccnc4)C3)o2)cc1`, -6.19%.
Under `CC(C)CCN1CC[C@H](c2nnc(Cc3c[nH]c4ccccc34)o2)C1` stands 1.15%.
As to `c1ccc2c(Cc3nnc([C@H]4CCN(CC5CC5)C4)o3)c[nH]c2c1`, the cytotoxicity at 70.5 h was -0.383%.
In the case of `CN1C(=O)CO[C@H](c2ccc(NC(=O)Nc3ccccc3)cc2)[C@H]1CO`, the cytotoxicity at 70.5 h was -7.02%.
On to `F[C@@H]1CN(CC2CC2)C[C@@H]1OCc1nc2cnccc2[nH]1`, for which the cytotoxicity at 70.5 h was -0.16%.
As for `F[C@@H]1CN(Cc2ccccc2)C[C@@H]1OCc1nc2cnccc2[nH]1`, the cytotoxicity at 70.5 h is 13.9%.
In the case of `COc1ccccc1CN1C[C@@H](F)[C@@H](OCc2nc3ccccc3[nH]2)C1`, the cytotoxicity at 70.5 h is -0.935%.
Turning to `CCNC(=O)NC[C@H]1COCc2nc3cc(OC)ccc3n21`, the cytotoxicity at 70.5 h is -10.9%.
With `Cc1cccc2c1nc1n2[C@@H](CNC2CCCCC2)COC1`, the cytotoxicity at 70.5 h was found to be 8.3%.
In the case of `O=C(C1CCOCC1)N1C[C@@H](F)[C@@H](OCc2nc3cc(F)ccc3[nH]2)C1`, the cytotoxicity at 70.5 h was -2.48%.
Turning to `Cc1cc2nc(CO[C@H]3CN(C4CCN(C)CC4)C[C@H]3F)[nH]c2cc1C`, the cytotoxicity at 70.5 h is -4.5%.
For the compound `O=C(NC[C@H]1COCc2nc3cc(F)ccc3n21)c1cccnc1`, the cytotoxicity at 70.5 h is -2.79%.
Consider `Cc1ccc2[nH]c(CO[C@H]3CN(c4ccc(C#N)cn4)C[C@H]3F)nc2c1`, for which the cytotoxicity at 70.5 h was -3.04%.
With `CC(=O)N1CCC(N2CC[C@H](c3nc4cc(F)ccc4o3)C2)CC1`, the cytotoxicity at 70.5 h was found to be 0.135%.
Regarding `COC(=O)[C@@H]1Cc2ncn(C)c2CN1S(=O)(=O)c1ccc(OC)cc1`, the cytotoxicity at 70.5 h was -3.58%.
As to `CCCn1cnc2c1CN(C(=O)c1ccc(F)cc1)[C@H](C(=O)OC)C2`, the cytotoxicity at 70.5 h was -7.42%.
Under `CCCn1cnc2c1CN(S(=O)(=O)c1ccc(F)cc1)[C@H](C(=O)OC)C2` stands 12.5%.
For the compound `CC[C@H]1CN2CC[C@H]1C[C@@H]2CNCc1ccc(N(C)C)cc1`, the cytotoxicity at 70.5 h is 26.4%.
As to `CN1CCN(C[C@H]2CN3CC[C@H]2C[C@@H]3CNC(=O)c2ccco2)CC1`, the cytotoxicity at 70.5 h was -6.36%.
On to `CN1CCC(N2CCC[C@H]2c2nc(-c3cncnc3N)no2)CC1`, for which the cytotoxicity at 70.5 h was -0.402%.
Under `CC1=C[C@@H](CN2CCC(O)CC2)[C@H](C(C)C)C[C@H]1Cc1nnc(C)o1` stands -4.6%; under `CCS(=O)(=O)c1ccc2oc([C@H]3CCN(Cc4cccnc4)C3)nc2c1`, 9.25%; under `CN(C)c1ccc(-c2nnc([C@H]3CCN(C4CCCCC4)C3)o2)cc1`, -4.32%.
On to `COCC(=O)Nc1ccc([C@@H](O)[C@H]2COCC(=O)N2CC(C)C)cc1`, for which the cytotoxicity at 70.5 h amounted to 8.86%.
Take `CC(C)(C)c1cc(C[C@H]2CNCC[C@H]2CC(=O)NC2CCCCC2)no1`: the cytotoxicity at 70.5 h is 2.18%.
On to `CC(C)N1C[C@H](O)C[C@H]1c1nc(-c2ccc(OC(F)(F)F)cc2)no1`, for which the cytotoxicity at 70.5 h was -3.17%.
For the compound `O=C(NC[C@H]1OC[C@@H](NC2CCC(F)(F)CC2)[C@@H]1O)C1CCCC1`, the cytotoxicity at 70.5 h is -10.5%.
Regarding `CC(C)N[C@@H]1CO[C@H](CNC(=O)c2ccccc2)[C@H]1O`, the cytotoxicity at 70.5 h was -0.106%.
Take `O=C(NC[C@H]1OC[C@@H](NCc2ccccn2)[C@@H]1O)c1ccc(F)cc1`: the cytotoxicity at 70.5 h is 2.33%.
Turning to `Cc1ccc(S(=O)(=O)NC[C@H]2OC[C@@H](NCc3ccccn3)[C@@H]2O)cc1`, the cytotoxicity at 70.5 h is -6.39%.
In the case of `CC(C)Cc1cc(CC2(NCc3ccccc3Cl)COC2)no1`, the cytotoxicity at 70.5 h was determined as 4.27%.
As for `CC(C)CNC[C@H]1O[C@H](Cc2cc(-c3ccccn3)on2)CC[C@@H]1O`, the cytotoxicity at 70.5 h was 0.841%.
With `COCCN1C[C@H]2CN(C(=O)c3ccno3)CCN2C1=O` the figure was -6.26%; with `O[C@H]1COCCN(Cc2cccc(C(F)(F)F)c2)C1`, -9.83%; with `COCC(=O)NC[C@H]1OC[C@@H](NC2CCC(F)(F)CC2)[C@@H]1O`, -8.37%.
As to `CC[C@H]1CN(S(=O)(=O)c2ccccc2)CC[C@H]1CC(=O)O`, the cytotoxicity at 70.5 h worked out at 5.41%.
Under `O=C([C@@H]1Cc2[nH]cnc2CN1C(=O)NC1CCCCC1)N1CCCC1` stands -7.01%; under `CC(=O)NC[C@@H]1C=C(C)[C@H](CC(=O)NCc2cccnc2)C[C@H]1C(C)C`, 4.62%.
Regarding `Fc1ccc(-c2c[nH]c([C@@H]3COCCN3)n2)cc1`, the cytotoxicity at 70.5 h was -9.31%.
Consider `CN1CCOC[C@H]1c1nc(-c2ccncc2)c[nH]1`, for which the cytotoxicity at 70.5 h was determined as 1.37%.
Take `O=C(NC[C@H]1OC[C@@H](NCc2ccccc2)[C@@H]1O)Nc1ccccc1`: the cytotoxicity at 70.5 h is -3.94%.
In the case of `CC(=O)N1CC[C@H]2NC(=O)N(Cc3ccccc3)C(=O)[C@H]21`, the cytotoxicity at 70.5 h was -1.45%.
For `Nc1ncncc1-c1noc([C@@H]2CCCN2CCCc2ccccc2)n1`, the cytotoxicity at 70.5 h was -6.26%.
Regarding `CC(=O)N[C@H]1CCN2C(=O)[C@@H](Cc3c[nH]c4ccccc34)NC(=O)[C@H]12`, the cytotoxicity at 70.5 h is -13.3%.
Under `Cc1cccc(-c2noc([C@@H]3C[C@@H](O)CN3Cc3ccc(CO)o3)n2)c1` stands 0.167%; under `COCc1cc(C[C@@H]2CC[C@H](O)[C@@H](CN(C)C)O2)no1`, -0.737%.
For the compound `Cc1ccc(CN2C[C@H]3CN(Cc4ccccc4Cl)CCN3C2=O)cc1`, the cytotoxicity at 70.5 h was -9.42%.
With `CC(C)(C)CN1CCN2C(=O)N(C3CCCCC3)C[C@H]2C1`, the cytotoxicity at 70.5 h is -11.1%.
As for `CC(C)(C)CN[C@@H]1CO[C@H](CNC(=O)C2CCCC2)[C@H]1O`, the cytotoxicity at 70.5 h is -14%.
Consider `Cc1ccc(CNC2(Cc3cc(CO)on3)COC2)o1`, for which the cytotoxicity at 70.5 h was -1.63%.
On to `CC(C)(C)CNC[C@H]1Cn2ccnc2CO1`, for which the cytotoxicity at 70.5 h is -4.98%.
As to `O=C(CN1C(=O)CCC1=O)NCc1cc(C2CC2)n(C2CCCC2)n1`, the cytotoxicity at 70.5 h is -2.61%.
With `Cn1cnnc1S(=O)(=O)C1CCN(S(=O)(=O)c2ccc(Cl)s2)CC1`, the cytotoxicity at 70.5 h came to 11.9%.
`Cc1c(Cl)cccc1S(=O)(=O)N1CCC(S(=O)(=O)c2nncn2C)CC1`: the cytotoxicity at 70.5 h is 1.44%.
`CNC(=O)CS(=O)(=O)C1CCN(S(=O)(=O)c2ccccc2Cl)CC1`: the cytotoxicity at 70.5 h was found to be 23.7%.
For the compound `O=C(NC[C@H]1OC[C@@H](NC2CCNCC2)[C@@H]1O)C1CCCC1`, the cytotoxicity at 70.5 h is -5.05%.
